Experimental data reported in ChEMBL document CHEMBL1131037, “Structure-based design, synthesis, and biological evaluation of irreversible human rhinovirus 3C protease inhibitors. 2. Peptide structure-activity studies” (J Med Chem, 1998).

Assays:
[1] = target: T1, Human rhinovirus A protease (Human rhinovirus sp.) (UniProt Q4U254); assay: Binding affinity on human Rhinovirus 3C protease (rhinovirus serotype 14)
T1 sequence (whole entry): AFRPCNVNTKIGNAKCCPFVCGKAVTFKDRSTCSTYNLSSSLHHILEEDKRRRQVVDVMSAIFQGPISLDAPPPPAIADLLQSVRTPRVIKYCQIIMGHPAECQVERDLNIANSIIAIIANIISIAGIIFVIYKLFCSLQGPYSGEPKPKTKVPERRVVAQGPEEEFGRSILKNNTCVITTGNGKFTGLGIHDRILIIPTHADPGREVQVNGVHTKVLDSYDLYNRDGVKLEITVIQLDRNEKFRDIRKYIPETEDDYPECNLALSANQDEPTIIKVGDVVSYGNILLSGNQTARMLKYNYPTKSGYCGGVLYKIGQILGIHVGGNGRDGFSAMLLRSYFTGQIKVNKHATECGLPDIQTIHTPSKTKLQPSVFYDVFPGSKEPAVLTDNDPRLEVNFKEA

[2] = target: T1, Human rhinovirus A protease (Human rhinovirus sp.); assay: Binding affinity on human Rhinovirus 3C protease (rhinovirus serotype 16)
rhinovirus B14 [3] = assay: Antiviral activity against HRV-14 in cell culture; assay type: functional, organism-based; settings: Rhinovirus B
rhinovirus B14 [4] = assay: Cytotoxic activity against HRV-14 in cell culture; assay type: functional, rhinovirus 14; settings: Rhinovirus B
[5] = target: T1, Human rhinovirus A protease (Human rhinovirus sp.); assay: (§1) Binding affinity on human Rhinovirus 3C protease (rhinovirus serotype 2)
HeLa = assay: Compound was tested for antiviral activity against HRV-2 in cell culture; assay type: functional, cell-based; settings: Homo sapiens
[6] = target: T1, Human rhinovirus A protease (Human rhinovirus sp.); assay: as §1; assay type: functional
[7] = target: T1, Human rhinovirus A protease (Human rhinovirus sp.); assay: Binding affinity on human Rhinovirus 3C protease (rhinovirus serotype 14); Slow

Compound	K obs / 1 [1] [M⁻¹ s⁻¹]	K obs / 1 [2] [M⁻¹ s⁻¹]	EC50 (rhinovirus B14 [3]) [µM]	CC50 (rhinovirus B14 [4]) [µM]	K obs / 1 [5] [M⁻¹ s⁻¹]	EC50 (HeLa) [µM]	K obs / 1 [6] [M⁻¹ s⁻¹]	K obs / 1 [7]
CCOC(=O)/C=C/[C@H](CCC(N)=O)NC(=O)[C@H](Cc1ccc(F)cc1)NC(=O)[C@H](CC(C)C)NC(=O)OCc1ccccc1	46000	9200	1.8	> 320	2400	5.6	–	–
CCOC(=O)/C=C/[C@H](CCC(N)=O)NC(=O)[C@H](Cc1cccs1)NC(=O)[C@H](CC(C)C)NC(=O)OCc1ccccc1	20000	4500	0.56	> 100	1800	–	–	–
CCOC(=O)/C=C/[C@H](CCC(N)=O)NC(=O)[C@H](Cc1ccc(C)cc1)NC(=O)[C@H](CC(C)C)NC(=O)OCc1ccccc1	59400	5300	0.18	> 320	1400	–	–	–
CCC[C@H](NC(=O)[C@H](CC(C)C)NC(=O)OCc1ccccc1)C(=O)N[C@H](/C=C/C(=O)OCC)CCC(N)=O	2300	1200	5	> 320	600	–	–	–
CCOC(=O)/C=C/[C@H](CCC(N)=O)NC(=O)[C@H](Cc1ccccc1)NC(=O)[C@H](CC(C)C)NC(=O)SCc1ccccc1	280000	75000	0.27	320	28400	1.9	–	–
CCOC(=O)/C=C/[C@H](CCC(N)=O)NC(=O)[C@H](CC1CCCCC1)NC(=O)[C@H](CC(C)C)NC(=O)OCc1ccccc1	16300	3500	1.9	> 320	–	–	700	–
CCOC(=O)/C=C/[C@H](CCC(N)=O)NC(=O)[C@H](Cc1ccccc1)NC(=O)[C@H](CC(C)C)NC(=O)SCC	91300	20000	0.46	> 320	8900	1	–	–
CCOC(=O)/C=C/[C@H](CCC(N)=O)NC(=O)CNC(=O)[C@H](CC(C)C)NC(=O)OCc1ccccc1	–	–	141	> 320	–	–	–	Slow
CCOC(=O)/C=C/[C@H](CCC(N)=O)NC(=O)[C@H](Cc1ccc(CCO)cc1)NC(=O)[C@H](CC(C)C)NC(=O)OCc1ccccc1	43100	1300	3.5	> 320	700	–	–	–
CCOC(=O)/C=C/[C@H](CCS(C)(=O)=O)NC(=O)[C@H](Cc1ccccc1)NC(=O)[C@H](CC(C)C)NC(=O)OCc1ccccc1	60	–	> 100	> 100	–	–	–	–
CCOC(=O)/C=C/[C@H](CCC(N)=O)NC(=O)[C@H](Cc1ccccc1)NC(=O)[C@H](CCCN1CCOCC1)NC(=O)OCc1ccccc1	43300	–	7.1	> 100	–	–	–	–
CCOC(=O)/C=C/[C@H](CCC(N)=O)NC(=O)[C@H](Cc1ccccc1)NC(=O)[C@H](CC(C)C)NC(C)=O	3700	–	14	> 320	–	–	–	–
CCOC(=O)/C=C/[C@H](CCC(N)=O)NC(=O)[C@H](Cc1ccc(OC(C)=O)cc1)NC(=O)[C@H](CC(C)C)NC(=O)OCc1ccccc1	1200	–	11	> 320	–	–	–	–
CCOC(=O)/C=C/[C@H](CCC(N)=O)NC(=O)[C@H](Cc1ccc(O)cc1)NC(=O)[C@H](CC(C)C)NC(=O)OCc1ccccc1	11300	–	5.3	> 320	–	–	–	–
CCOC(=O)/C=C/[C@H](CCC(N)=O)NC(=O)[C@H](Cc1ccccc1)NC(=O)[C@H](CC(C)C)NC(=O)OC(C)(C)C	700	–	4.5	> 100	–	–	–	–
CCOC(=O)/C=C/[C@H](CCC(N)=O)NC(=O)[C@H](Cc1nccn1C)NC(=O)[C@H](CC(C)C)NC(=O)OCc1ccccc1	8900	–	10	> 320	–	–	–	–
CCOC(=O)/C=C/[C@H](CCC(N)=O)NC(=O)[C@H](Cc1ccccc1)NC(=O)[C@H](C)NC(=O)OCc1ccccc1	11300	–	2	> 320	–	–	–	–

Compound	K obs / 1 [1] [M⁻¹ s⁻¹]	K obs / 1 [2] [M⁻¹ s⁻¹]	EC50 (rhinovirus B14 [3]) [µM]	CC50 (rhinovirus B14 [4]) [µM]	K obs / 1 [5] [M⁻¹ s⁻¹]	EC50 (HeLa) [µM]	K obs / 1 [6] [M⁻¹ s⁻¹]	K obs / 1 [7]
CCOC(=O)/C=C/[C@H](CCC(N)=O)NC(=O)[C@H](Cc1ccc(OP(=O)(O)O)cc1)NC(=O)[C@H](CC(C)C)NC(=O)OCc1ccccc1	1200	–	14	> 320	–	–	–	–
CCOC(=O)/C=C/[C@H](CCC(N)=O)NC(=O)[C@H](Cc1ccc(OC)cc1)NC(=O)[C@H](CC(C)C)NC(=O)OCc1ccccc1	29000	3400	1.7	> 320	1100	14	–	–
CCOC(=O)/C=C/[C@H](CCC(N)=O)NC(=O)[C@H](CSCC)NC(=O)[C@H](CC(C)C)NC(=O)OCc1ccccc1	3000	–	10	> 320	–	–	–	–
CCOC(=O)/C=C/[C@H](CCC(N)=O)NC(=O)[C@H](Cc1ccccc1)NC(=O)[C@@H](NC(=O)OCc1ccccc1)C(C)(C)C	39800	–	0.32	178	–	–	–	–
CCOC(=O)/C=C/[C@H](CCC(N)=O)NC(=O)[C@H](Cc1ccccc1)NC(=O)[C@H](CC(=O)O)NC(=O)OCc1ccccc1	35000	–	2.4	> 320	–	–	–	–
CCOC(=O)/C=C/[C@H](CCC(N)=O)NC(=O)[C@H](Cc1ccccc1)NC(=O)[C@H](CC(C)C)NC(=O)SC	69800	–	1.1	> 320	–	–	–	–
CCOC(=O)/C=C/[C@H](CCC(N)=O)NC(=O)[C@H](Cc1ccccc1)NC(=O)[C@H](CCSC)NC(=O)OCc1ccccc1	46200	–	1.4	> 100	–	–	–	–
CCOC(=O)/C=C/[C@H](CCC(N)=O)NC(=O)[C@H](Cc1ccc(OCC)cc1)NC(=O)[C@H](CC(C)C)NC(=O)OCc1ccccc1	4200	–	> 320	> 320	–	–	–	–
CCOC(=O)/C=C/[C@H](CCC(N)=O)NC(=O)C(NC(=O)[C@H](CC(C)C)NC(=O)OCc1ccccc1)[C@H](C)O (some centres undefined)	1800	–	56	> 320	–	–	–	–
CCOC(=O)/C=C/[C@H](CCC(N)=O)NC(=O)[C@H](Cc1ccccc1)NC(=O)[C@@H](NC(=O)OCc1ccccc1)C(C)C	62500	–	0.38	> 320	–	–	–	–
CCOC(=O)/C=C/[C@H](CCC(N)=O)NC(=O)[C@H](Cc1ccccc1)NC(=O)OCc1ccccc1	400	–	5.6	> 100	–	–	–	–
CCOC(=O)/C=C/[C@H](CCC(N)=O)NC(=O)[C@H](Cc1ccc(C#N)cc1)NC(=O)[C@H](CC(C)C)NC(=O)OCc1ccccc1	10800	–	5.6	> 320	–	–	–	–
CCOC(=O)/C=C/[C@H](CCC(N)=O)NC(=O)[C@H](CC)NC(=O)[C@H](CC(C)C)NC(=O)OCc1ccccc1	4500	–	6	> 320	–	–	–	–
CCOC(=O)/C=C/[C@H](CCC(N)=O)NC(=O)[C@H](C)NC(=O)[C@H](CC(C)C)NC(=O)OCc1ccccc1	1300	–	20	> 320	–	–	–	–
CCOC(=O)/C=C/[C@H](CCC(N)=O)NC(=O)[C@H](Cc1ccccc1)NC(=O)[C@H](CC(C)C)NC(=O)NCc1ccccc1	6900	–	> 100	> 100	–	–	–	–
CCOC(=O)/C=C/[C@H](CCC(N)=O)NC(=O)[C@H](Cc1ccccc1)NC(=O)[C@H](CC(C)C)NC(=O)N(C)Cc1ccccc1	3200	–	5.6	> 100	–	–	–	–
CCOC(=O)/C=C/[C@H](CCC(N)=O)NC(=O)[C@H](Cc1ccccc1)NC(=O)[C@H](CC(C)C)NC(=O)SC1CCCC1	114000	–	0.18	> 100	–	–	–	–
